Test results reported in ChEMBL document CHEMBL1154410, “In vivo efficacy of a novel oxazolidinone compound in two mouse models of infection” (Antimicrob Agents Chemother, 2007).
In brackets after ≈: the same amount, converted by molar mass. Activity calls are given as the source filed them. The calls are words filed in the database; no cut-off is given here.

Experiments:
Staphylococcus aureus [1] = test: Antibacterial activity against methicillin-susceptible Staphylococcus aureus Smith infected in C3H mouse assessed as reduction in log number of CFU at 3.12 mg/kg/day, iv administered within 15 mins of infection measured after 48 hrs by organ burden assay relative to control; type: functional
Staphylococcus aureus [2] = test: (§1) Antibacterial activity against methicillin-resistant Staphylococcus aureus COL infected in po dosed DBA/2 mouse localized infection model assessed as reduction of number of CFU per gram of thigh administered 2 hrs postinfection thrice daily for 1 day and once daily for 5 days measured after 48 hrs relative to control; type: functional
Staphylococcus aureus [3] = test: Antibacterial activity against methicillin-susceptible Staphylococcus aureus Smith infected in C3H mouse assessed as eradication at 12.5 mg/kg/day, po administered within 15 mins of infection assessed per gram of kidney measured after 48 hrs by organ burden assay relative to control; type: functional
Staphylococcus aureus [4] = test: Antibacterial activity against methicillin-susceptible Staphylococcus aureus Smith infected in C3H mouse assessed as eradication at 3.12 mg/kg/day, iv administered within 15 mins of infection assessed per gram of kidney measured after 48 hrs by organ burden assay relative to control; type: functional
Staphylococcus aureus [5] = test: Antibacterial activity against methicillin-susceptible Staphylococcus aureus Smith infected in C3H mouse assessed as eradication at 6.25 mg/kg/day, po administered within 15 mins of infection assessed per gram of kidney measured after 48 hrs by organ burden assay relative to control; type: functional
Staphylococcus aureus [6] = test: Antibacterial activity against methicillin-susceptible Staphylococcus aureus Smith infected in C3H mouse assessed as reduction in log number of CFU at 12.5 mg/kg/day, iv administered within 15 mins of infection measured after 48 hrs by organ burden assay relative to control; type: functional
Streptococcus pneumoniae = test: Antibacterial activity against penicillin-resistant Streptococcus pneumoniae; type: functional, organism-based
Staphylococcus aureus [7] = test: Antibacterial activity against 10^9 CFU linezolid-resistant methicillin-resistant Staphylococcus aureus by dilution susceptibility test; type: functional
Moraxella catarrhalis = test: Antibacterial activity against Moraxella catarrhalis by dilution susceptibility test; type: functional
Staphylococcus aureus [8] = test: as §1, with “in iv” for “in po”, “for 1 day” for “for 5 days”; type: functional
Enterococcus = test: Antibacterial activity against vancomycin-resistant Enterococcus spp.; type: functional, organism-based
[9] = Fraction unbound in Staphylococcus aureus-infected mouse localized thigh infection model plasma at 25 mg/kg; type: ADME, organism-based; design: dose 25 mg/kg; conditions: read-out: PPB
Staphylococcus aureus [10] = test: Antibacterial activity against methicillin-susceptible Staphylococcus aureus Smith infected in po dosed C3H mouse localized infection model assessed as reduction of number of CFU per gram of kidney administered 15 mins after infection measured after 48 hrs relative to control; type: functional
[11] = Bioavailability in Staphylococcus aureus-infected mouse localized thigh infection model at 25 mg/kg; type: ADME, organism-based; conditions: in vivo
Staphylococcus aureus [12] = test: (§2) Antibacterial activity against methicillin-resistant Staphylococcus aureus COL infected in po dosed DBA/2 mouse localized infection model assessed as log reduction in CFU per gram of thigh at 5 mg/kg, po administered 2 hrs postinfection thrice daily for 1 day and once daily for 5 days measured after 48 hrs by organ burden assay relative to control; type: functional
Staphylococcus aureus [13] = test: Antibacterial activity against 3.6 x 10^8 CFU methicillin-resistant Staphylococcus aureus COL by dilution susceptibility test; type: functional
Staphylococcus aureus [14] = test: Antibacterial activity against methicillin-susceptible Staphylococcus aureus Smith infected in C3H mouse assessed as reduction in log number of CFU at 25 mg/kg/day, po administered within 15 mins of infection measured after 48 hrs by organ burden assay relative to control; type: functional
Staphylococcus aureus [15] = test: Antibacterial activity against methicillin-susceptible Staphylococcus aureus Smith infected in iv dosed C3H mouse localized infection model assessed as reduction of number of CFU per gram of kidney administered 15 mins after infection measured after 48 hrs relative to control; type: functional
Staphylococcus aureus [16] = test: Antibacterial activity against methicillin-susceptible Staphylococcus aureus Smith infected in C3H mouse assessed as reduction in log number of CFU at 3.12 mg/kg/day, po administered within 15 mins of infection measured after 48 hrs by organ burden assay relative to control; type: functional
Staphylococcus aureus [17] = test: Antibacterial activity against methicillin-susceptible Staphylococcus aureus Smith infected in C3H mouse assessed as eradication at 25 mg/kg/day, po administered within 15 mins of infection assessed per gram of kidney measured after 48 hrs by organ burden assay relative to control; type: functional
Staphylococcus aureus [18] = test: Antibacterial activity against methicillin-resistant Staphylococcus aureus; type: functional, organism-based
Staphylococcus aureus [19] = test: Antibacterial activity against methicillin-susceptible Staphylococcus aureus Smith infected in C3H mouse assessed as eradication at 6.25 mg/kg/day, iv administered within 15 mins of infection assessed per gram of kidney measured after 48 hrs by organ burden assay relative to control; type: functional
Staphylococcus aureus [20] = test: as §2, with “at 10” for “at 5”; type: functional
Staphylococcus aureus [21] = test: as §2, with “mg/kg, iv” for “mg/kg, po”, “for 1 day” for “for 5 days”; type: functional
Staphylococcus aureus [22] = test: Antibacterial activity against methicillin-susceptible Staphylococcus aureus Smith infected in C3H mouse assessed as reduction in log number of CFU at 25 mg/kg/day, iv administered within 15 mins of infection measured after 48 hrs by organ burden assay relative to control; type: functional
Staphylococcus aureus [23] = test: as §2, with “at 10” for “at 5”, “mg/kg, iv” for “mg/kg, po”, “for 1 day” for “for 5 days”; type: functional
Staphylococcus aureus [24] = test: Antibacterial activity against methicillin-susceptible Staphylococcus aureus Smith by dilution susceptibility test; type: functional
Staphylococcus aureus [25] = test: Antibacterial activity against methicillin-susceptible Staphylococcus aureus Smith infected in C3H mouse assessed as eradication at 12.5 mg/kg/day, iv administered within 15 mins of infection assessed per gram of kidney measured after 48 hrs by organ burden assay relative to control; type: functional
Staphylococcus aureus [26] = test: Antibacterial activity against methicillin-susceptible Staphylococcus aureus Smith infected in C3H mouse assessed as reduction in log number of CFU at 6.25 mg/kg/day, po administered within 15 mins of infection measured after 48 hrs by organ burden assay relative to control; type: functional
Staphylococcus aureus [27] = test: Antibacterial activity against methicillin-susceptible Staphylococcus aureus Smith infected in C3H mouse assessed as eradication at 25 mg/kg/day, iv administered within 15 mins of infection assessed per gram of kidney measured after 48 hrs by organ burden assay relative to control; type: functional
Staphylococcus aureus [28] = test: as §1, with “against linezolid-resistant” for “against”, “aureus” for “aureus COL”, “C3H” for “DBA/2”; type: functional; conditions: Thigh muscle
Staphylococcus aureus [29] = test: Antibacterial activity against methicillin-susceptible Staphylococcus aureus Smith infected in C3H mouse assessed as reduction in log number of CFU at 12.5 mg/kg/day, po administered within 15 mins of infection measured after 48 hrs by organ burden assay relative to control; type: functional
Haemophilus influenzae = test: Antibacterial activity against Haemophilus influenzae by dilution susceptibility test; type: functional
Staphylococcus aureus [30] = test: Antibacterial activity against methicillin-susceptible Staphylococcus aureus Smith infected in C3H mouse assessed as eradication at 3.12 mg/kg/day, po administered within 15 mins of infection assessed per gram of kidney measured after 48 hrs by organ burden assay relative to control; type: functional
Staphylococcus aureus [31] = test: Antibacterial activity against methicillin-susceptible Staphylococcus aureus Smith infected in C3H mouse assessed as reduction in log number of CFU at 6.25 mg/kg/day, iv administered within 15 mins of infection measured after 48 hrs by organ burden assay relative to control; type: functional
Staphylococcus aureus [32] = test: Antibacterial activity against methicillin-susceptible Staphylococcus aureus Smith infected in C3H mouse assessed as renal sterilization at 25 mg/kg/day, po administered 15 mins postinfection; type: functional, organism-based
Staphylococcus aureus [33] = test: Antibacterial activity against linezolid-resistant methicillin-resistant Staphylococcus aureus infected in C3H mouse localized infection model assessed as log reduction in CFU per gram of thigh at 100 mg/kg measured after 48 hrs by organ burden assay relative to control; type: functional

Structure (SMILES) | Activity (Staphylococcus aureus [1]) | ED99 (Staphylococcus aureus [2]) | Activity (Staphylococcus aureus [3]) | Activity (Staphylococcus aureus [4]) | Activity (Staphylococcus aureus [5]) | Activity (Staphylococcus aureus [6]) | MIC (Staphylococcus aureus [7]) | ED99 (Staphylococcus aureus [8]) | fraction unbound [9] | ED99 (Staphylococcus aureus [10]) | log10cfu (Staphylococcus aureus [12]) | MIC (Staphylococcus aureus [13]) | Activity (Staphylococcus aureus [14]) | ED99 (Staphylococcus aureus [15]) | Activity (Staphylococcus aureus [16]) | Activity (Staphylococcus aureus [17]) | Activity (Staphylococcus aureus [19]) | log10cfu (Staphylococcus aureus [20]) | log10cfu (Staphylococcus aureus [21]) | Activity (Staphylococcus aureus [22]) | further results
N#C[C@]1(c2ccc(-c3ccc(N4C[C@H](Cn5ccnn5)OC4=O)cc3F)cn2)[C@@H]2CNC[C@@H]21 | 0.06 | 4.2 mg/kg | 0% | 0% | 0% | 4.46 | 1 µg/mL (≈ 2.24 µM) | 5.6 mg/kg | 0.19 | 4.9 mg/kg | 2 | 0.125 µg/mL (≈ 0.281 µM) | 5.23 | 6.3 mg/kg | -0.26 | 0% | 0% | 3.7 | 2.4 | 4.59 | Activity (Streptococcus pneumoniae): Active; MIC90 (Moraxella catarrhalis): 0.5 µg/mL (≈ 1.12 µM); Activity (Enterococcus): Active; bioavailability [11]: 30%; Activity (Staphylococcus aureus [18]): Active; log10cfu (Staphylococcus aureus [23]): 1.5; MIC (Staphylococcus aureus [24]): 0.125 µg/mL (≈ 0.281 µM); Activity (Staphylococcus aureus [25]): 0%; Activity (Staphylococcus aureus [26]): 2.63; Activity (Staphylococcus aureus [27]): 0%; ED99 (Staphylococcus aureus [28]): 10.2 mg/kg; Activity (Staphylococcus aureus [29]): 2.93; MIC90 (Haemophilus influenzae): 2 µg/mL (≈ 4.49 µM); Activity (Staphylococcus aureus [30]): 0%; Activity (Staphylococcus aureus [31]): 2.03
CC(=O)NC[C@H]1CN(c2ccc(N3CCOCC3)c(F)c2)C(=O)O1 [LINEZOLID] | -0.27 | 5.2 mg/kg | 0% | 0% | 0% | 1.44 | 64 µg/mL (≈ 190 µM) | 6.9 mg/kg | 0.68 | 7 mg/kg | 2 | 1 µg/mL (≈ 2.96 µM) | 6.07 | 12 mg/kg | -0.53 | 100% | 0% | 3.7 | 2.4 | 4.27 | Activity (Staphylococcus aureus [32]): Active; log10cfu (Staphylococcus aureus [33]): 2.5; log10cfu (Staphylococcus aureus [23]): 1.5; Activity (Staphylococcus aureus [25]): 0%; Activity (Staphylococcus aureus [26]): 1.44; Activity (Staphylococcus aureus [27]): 0%; ED99 (Staphylococcus aureus [28]): 85 mg/kg; Activity (Staphylococcus aureus [29]): 2.71; Activity (Staphylococcus aureus [30]): 0%; Activity (Staphylococcus aureus [31]): -0.12
